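Method: 48-hour compound exposure of cells in 96-well plates, five concentrations, linear interpolation of endpoints. GI50 = concentration required for 50% inhibition of growth. TGI: concentration producing complete growth inhibition.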

Test systems include A549 NSCLC; IGROV1 ovarian; KM12 colon; NCI/ADR-RES ovarian; OVCAR-3 ovarian; RXF 393 renal; SN12C renal; SNB-75 CNS; SW-620 colon; U251 CNS.
Experiment in all cases: growth of human tumour cells (NCI), 48 h

With `Cc1[nH]nc(C(F)(F)F)c1N=NN1CCOCC1`, the TGI in the assay with A549 NSCLC amounted to 24.7 µM; in the assay on IGROV1 ovarian, 22.6 µM; in the assay with KM12 colon it was 21.9 µM; in the assay with NCI/ADR-RES ovarian, 22.1 µM; in the assay with OVCAR-3 ovarian, 23 µM; with RXF 393 renal, 25.1 µM. Further, the TGI amounted to 30.8 µM with SN12C renal, 26.7 µM with SNB-75 CNS, 5.64 µM in the assay with SW-620 colon and 27.7 µM with U251 CNS.
On to `COc1ccc2cc(/C=N/NC(=O)Nc3ccccc3)ccc2c1`, for which the TGI in the assay on IGROV1 ovarian, with KM12 colon, in the assay on NCI/ADR-RES ovarian, in the assay on OVCAR-3 ovarian, with SN12C renal and in the assay with SNB-75 CNS was > 100 µM each time. Also, the TGI in the assay with SW-620 colon and in the assay on U251 CNS was > 100 µM each time.
On to `O=c1cnn(C/C=C/CO)c(=O)[nH]1`, for which the TGI in the assay with A549 NSCLC, in the assay on IGROV1 ovarian, in the assay with KM12 colon, in the assay on NCI/ADR-RES ovarian, in the assay on OVCAR-3 ovarian and with RXF 393 renal was > 100 µM throughout. Moreover, the TGI with SN12C renal, in the assay with SNB-75 CNS, with SW-620 colon and with U251 CNS was > 100 µM in each case.
Take `CN(C)CCCN1CCC2(CCC(C(C)(C)C)CC2)CC1`: the TGI with A549 NSCLC was found to be 12.1 µM; in the assay with IGROV1 ovarian, 9.03 µM; with KM12 colon it was 6.18 µM; with NCI/ADR-RES ovarian, 19.5 µM; with OVCAR-3 ovarian, 10.9 µM; in the assay on RXF 393 renal, 4.13 µM. Besides, the TGI in the assay with SN12C renal stood at 20.6 µM; in the assay with SNB-75 CNS it was 4.11 µM; with SW-620 colon, 7.87 µM; in the assay on U251 CNS it was 3.64 µM.
As for `CC(OC(C)(C)C)[C@H](NC(=O)OCC(Cl)(Cl)Cl)C(=O)O` (some centres undefined), the TGI in the assay with A549 NSCLC, with IGROV1 ovarian, in the assay on KM12 colon, in the assay with OVCAR-3 ovarian, with RXF 393 renal and with SN12C renal was > 100 µM throughout. Further, the TGI with SNB-75 CNS, in the assay on SW-620 colon and in the assay with U251 CNS was > 100 µM in each case.
On to `CCC(/C=C/C1OC(=O)C=CC1C)=C\C(C)C/C=C/C(C)=C/C(C)C(=O)C(C)C(O)C(C)C/C(C)=C/C(=O)O` (centres undefined), for which the GI50 with A549 NSCLC is 1.64e-05 µM; in the assay with IGROV1 ovarian it was 7.48 pM; with NCI/ADR-RES ovarian, 0.701 µM; in the assay with OVCAR-3 ovarian it was 14.5 pM; with RXF 393 renal, < 1 pM; in the assay on SN12C renal it was 69.6 pM. Also, the figures for the GI50 in the assay on SW-620 colon and with U251 CNS were 0.00244 nM and < 1 pM, respectively. The TGI in the assay with A549 NSCLC stood at 3.96 µM; in the assay with IGROV1 ovarian it was 16 µM; in the assay with NCI/ADR-RES ovarian it was 4.15 µM; in the assay on RXF 393 renal, 3.56 µM; in the assay with SN12C renal it was 12 µM; in the assay on SNB-75 CNS, 7.17 µM. The results for the TGI in the assay on SW-620 colon and with U251 CNS were 6.29 µM and 5.89 µM, respectively.
With `S=C(S)NCNC(=S)S.[Zn+2]`, the TGI in the assay with A549 NSCLC, in the assay with IGROV1 ovarian, in the assay with KM12 colon, with NCI/ADR-RES ovarian, with OVCAR-3 ovarian and in the assay with RXF 393 renal was > 100 µM throughout. The TGI in the assay with SN12C renal, with SNB-75 CNS, with SW-620 colon and with U251 CNS was > 100 µM throughout.
As for `C[C@H](CCC(=O)O)[C@H]1CC[C@H]2[C@@H]3CC[C@@H]4C[C@H](O)CC[C@]4(C)[C@H]3C[C@H](O)[C@]12C`, the TGI is > 100 µM in the assay with A549 NSCLC; 86.7 µM in the assay with IGROV1 ovarian; > 100 µM with KM12 colon; > 100 µM with NCI/ADR-RES ovarian; 52.1 µM with OVCAR-3 ovarian; > 100 µM with RXF 393 renal. In addition, the TGI with SN12C renal, in the assay with SNB-75 CNS, with SW-620 colon and in the assay on U251 CNS was > 100 µM throughout.
For the compound `CC1(CCOCc2ccccc2)NC(=O)NC1=O` (centres undefined), the TGI with A549 NSCLC, in the assay on IGROV1 ovarian, in the assay with KM12 colon, with NCI/ADR-RES ovarian, with OVCAR-3 ovarian and in the assay with RXF 393 renal was > 100 µM throughout. The TGI with SN12C renal, in the assay on SW-620 colon and in the assay on U251 CNS was > 100 µM each time.
For the compound `O=C(Cn1c[n+](CC(=O)c2ccc(-c3ccccc3)cc2)c2ccccc21)Nc1cccc2cccnc12`, the GI50 in the assay on A549 NSCLC was 3.02 µM; in the assay on NCI/ADR-RES ovarian it was 18.7 µM; with SNB-75 CNS it was 1.65 µM; in the assay with SW-620 colon, 1620 nM. Further, the TGI in the assay with A549 NSCLC came out at 13 µM; with NCI/ADR-RES ovarian, 64.8 µM; in the assay with SNB-75 CNS, 4.03 µM; with SW-620 colon, 3.05 µM.
In the case of `NCc1ccccc1-c1c2nc(c(-c3ccccc3CN)c3ccc([nH]3)c(-c3ccccc3CN)c3nc(c(-c4ccccc4CN)c4ccc1[nH]4)C=C3)C=C2`, the TGI in the assay on A549 NSCLC is 46.9 µM; with IGROV1 ovarian, 59.4 µM; with KM12 colon it was 50.7 µM; with OVCAR-3 ovarian it was 39.2 µM; in the assay with RXF 393 renal it was 43 µM; with SN12C renal, 39.8 µM. Moreover, the TGI in the assay with SNB-75 CNS was 24.7 µM; in the assay with SW-620 colon, > 100 µM; with U251 CNS, 51.6 µM.
With `Cn1c(=O)c(-c2ccccc2)c(N=[N+]=[N-])c2ccccc21`, the TGI with A549 NSCLC, in the assay on IGROV1 ovarian, in the assay on KM12 colon, with NCI/ADR-RES ovarian, in the assay with OVCAR-3 ovarian and with RXF 393 renal was > 100 µM each time. In addition, the TGI in the assay on SN12C renal, in the assay with SNB-75 CNS, in the assay with SW-620 colon and in the assay with U251 CNS was > 100 µM each time.
On to `O=C(O)CCC(NC(=O)c1ccc(Nc2nc3cc(C(F)(F)F)ccc3nc2-c2ccccc2)cc1)C(=O)O` (centres undefined), for which the TGI in the assay on A549 NSCLC was > 100 µM; in the assay with IGROV1 ovarian it was > 100 µM; with KM12 colon, > 100 µM; in the assay on NCI/ADR-RES ovarian it was > 100 µM; in the assay with OVCAR-3 ovarian it was > 100 µM; with RXF 393 renal, 94.8 µM. Further, the TGI with SN12C renal, with SNB-75 CNS, in the assay with SW-620 colon and in the assay on U251 CNS was > 100 µM each time.
For the compound `Cn1c(=O)c2c(nc(Cc3ccccc3)n2CC(=O)O)n(C)c1=O`, the TGI in the assay with A549 NSCLC, with IGROV1 ovarian, in the assay with KM12 colon, in the assay on NCI/ADR-RES ovarian, in the assay with OVCAR-3 ovarian and with RXF 393 renal was > 100 µM throughout. Besides, the TGI with SN12C renal, in the assay on SNB-75 CNS, in the assay on SW-620 colon and with U251 CNS was > 100 µM each time.

The values are drawn from PubChem BioAssay (NCI).
